From US20190330189A1, “ANTIBACTERIAL COMPOUNDS” (Janssen Sciences Ireland UC, priority 2015, published 2019)

Test system: Mycobacterium tuberculosis strain EH 4.0 (361.269)
Assay: Test 4: MIC determination, resazurin fluorescence, strain EH 4.0
Format: cell-based
Settings: Mycobacterium tuberculosis, read-out: pIC50, Test 4, M. tuberculosis strain EH 4.0 (361.269) (converted)
Excerpt: TEST 4 (See Also Test 1 Above; in this Test a Different Strain of Mycobacterium tuberculosis Strain is Employed)
Appropriate solutions of experimental and reference compounds were made in 96 well plates with 7H9 medium. Samples of Mycobacterium tuberculosis strain EH 4.0 (361.269) were taken from cultures in stationary growth phase. These were first diluted to obtain an optical density of 0.3 at 600 nm wavelength and then diluted 1/100, resulting in an inoculum of approximately 5×10 exp5 colony forming units per well. Plates were incubated at 37° C. in plastic bags to prevent evaporation. After 7 days, resazurin was added to all wells.

Row | SMILES | IC50
1 | CCc1nc2sc(C)cn2c1C(=O)NCC1CC2(CCN(c3ccc(OC(F)(F)F)cc3)CC2)C1 [Compound 32] | 0.0398 µM
2 | O=C(NCC1CC12CCN(c1ccc(OC(F)(F)F)cc1)CC2)c1cc2n(c1)CCCC2 (centres unmarked) [Compound 33] | > 12.6 µM
3 | CCc1nc2cn(C)ccc-2c1C(=O)NCc1ccc(N2CC3(CC(F)C3)C2)cc1 [Compound 34] | > 12.6 µM
4 | O=C(NCc1ccc(N2CC3(C2)CN(c2ccc(OC(F)(F)F)cc2)C3)cc1)c1cc2c([nH]1)CCCC2 [Compound 35] | 7.94 µM
5 | CCc1c(C(=O)NCc2ccc(N3CC4(CC(c5ccc(OC(F)(F)F)cc5)C4)C3)cc2)c2ccncc2n1C [Compound 36] | 7.94 µM
6 | O=C(NCc1ccc(N2CC3(CC(c4ccc(OC(F)(F)F)cc4)C3)C2)cc1)c1cc2c([nH]1)CCCC2 [Compound 37] | 3.98 µM
7 | CCc1c(C(=O)NCC2CC23CCN(c2ccc(OC(F)(F)F)cc2)CC3)c2cc(Cl)cnc2n1C (centres unmarked) [Compound 38] | > 12.6 µM
8 | CCc1c(C(=O)NCC2CC23CCN(c2ccc(OC(F)(F)F)cc2)CC3)c2cc(Cl)ccc2n1C (centres unmarked) [Compound 39] | > 12.6 µM
9 | O=C(NCC1CC12CCN(c1ccc(OC(F)(F)F)cc1)CC2)c1cc2c([nH]1)CCCC2 (centres unmarked) [Compound 40] | > 12.6 µM
10 | CCc1nc2n(c1C(=O)NCC1CC13CCN(c1ccc(OC(F)(F)F)cc1)CC3)CCN(C)C2 (centres unmarked) [Compound 41] | 7.94 µM
11 | O=C(NCc1ccc(N2CC3(C2)CN(c2ccc(OC(F)(F)F)cc2)C3)cc1)c1cc2n(c1)CCCC2 [Compound 42] | 10 µM
12 | CCc1c(C(=O)NCC2CC3(CCN(c4ccc(OC(F)(F)F)cc4)CC3)C2)c2cc(Cl)cnc2n1C [Compound 43] | > 12.6 µM
13 | O=C(NCC1CC2(CCN(c3ccc(OC(F)(F)F)cc3)CC2)C1)c1cc2c([nH]1)CCCC2 [Compound 44] | 7.94 µM
14 | O=C(NCc1ccc(N2CC3(CC(c4ccc(OC(F)(F)F)cc4)C3)C2)cc1)c1cc2n(c1)CCCC2 [Compound 45] | 7.94 µM
15 | CCc1nc2n(c1C(=O)NCC1CC3(CCN(c4ccc(OC(F)(F)F)cc4)CC3)C1)CCN(C)C2 [Compound 46] | 7.94 µM
16 | CCc1c(C(=O)NCc2ccc(N3CC4(C3)CN(c3ccc(OC(F)(F)F)cc3)C4)cc2)c2ccncc2n1C [Compound 47] | 6.31 µM
17 | CCc1nc2n(c1C(=O)NCC1CC13CCN(c1ccc(OC(F)(F)F)cc1)CC3)CCCC2 (centres unmarked) [Compound 48] | 6.31 µM
18 | CCc1c(C(=O)NCC2CC23CCN(c2ccc(OC(F)(F)F)cc2)CC3)c2ccncc2n1C (centres unmarked) [Compound 49] | > 12.6 µM
19 | CCc1nc2cn(C)ccc-2c1C(=O)NCC1CC2(CCN(c3ccc(OC(F)(F)F)cc3)CC2)C1 [Compound 50] | > 12.6 µM
20 | CCc1nc2ccn(C)cc-2c1C(=O)NCc1ccc(N2CC3(C2)CN(c2ccc(OC(F)(F)F)cc2)C3)cc1 [Compound 51] | 6.31 µM
21 | CCc1c(C(=O)NCC2CC3(CCN(c4ccc(OC(F)(F)F)cc4)CC3)C2)c2ccncc2n1C [Compound 52] | 7.94 µM
22 | CCc1nc2ccn(C)cc-2c1C(=O)NCC1CC12CCN(c1ccc(OC(F)(F)F)cc1)CC2 (centres unmarked) [Compound 53] | > 12.6 µM
23 | CCc1nc2cnc(Cl)cn2c1C(=O)NCC1CC12CCN(c1ccc(OC(F)(F)F)cc1)CC2 (centres unmarked) [Compound 54] | 7.94 µM
24 | CCc1c(C(=O)NCC2CC23CCN(c2ccc(OC(F)(F)F)cc2)CC3)c2cnccc2n1C (centres unmarked) [Compound 55] | > 12.6 µM
25 | COc1ccn2nc(C)c(C(=O)NCc3ccc(C4CC5(C4)CN(c4ccc(OC(F)(F)F)cc4)C5)cc3)c2c1 [Compound 56] | 0.00631 µM
26 | COc1ccn2nc(C)c(C(=O)NCc3ccc(N4CC5(C4)CN(c4ccc(OC(F)(F)F)cc4)C5)cc3)c2c1 [Compound 57] | 0.00794 µM
27 | CCc1nc2cnc(Cl)cn2c1C(=O)NCc1ccc(N2CC3(C2)CN(c2ccc(OC(F)(F)F)cc2)C3)cc1 [Compound 58] | 0.1 µM
28 | COc1ccn2nc(C)c(C(=O)NCC3CC4(CCN(c5ccc(OC(F)(F)F)cc5)CC4)C3)c2c1 [Compound 59] | 0.316 µM
29 | Cc1nc2ncc(Cl)cn2c1C(=O)NCC1CC2(CCN(c3ccc(OC(F)(F)F)cc3)CC2)C1 [Compound 60] | 0.1 µM
